From patent publication EP3827825A1, “USE OF 3, 4-DIARYLPYRAZOLES AS ANTIBACTERIAL AGENTS” (Wageningen Universiteit, priority 2019, dated 2021)
Converted amounts (≈) assume the structure as drawn. Read-outs that look alike come from different tables or passages of the source.

Columns and labels:
S. aureus Newman = assay: Minimal inhibitory concentration (MIC), double-dilution in broth, OD600; format: cell-based, Staphylococcus aureus Newman; settings: unit assumed
Description: (§1) In short, a stock solution of 5 mg/mL of HKIs in DMSO was made. This stock was diluted to 50 µg/mL in broth in a 96 well plate. Dilutions were made (factor 2) directly in the plate with a multi-channel pipet. Bacteria cultured in suspension overnight were then added to the plate (except negative control) and the plate was incubated for 24 hours. After 24 hours the OD600 was measured using a spectrophotometer. A positive control (with bacteria, without HKI) was also measured on each plate.
Bacterial strains used in this study for antibacterial susceptibility testing (Table S2) were propagated using standard microbiological procedures. Minimal inhibitory concentrations (MICs) were determined following a standard double-dilution method (42), 73. […] For M. marinum, MICs were determined in Middlebrook 7H9 broth (Difco) and MICs were determined after 3 days incubation at 30 °C.
(§2) Grow the bacterial colonies to be tested from single colonies on an agar plate in LB broth or suitable bacterial growth medium overnight at 37°C. Prepare a 5 mg/mL stock solution of compounds to be tested in DMSO. One 96-well plate per bacterial strain was prepared. First, put 50 uL of medium to each well. Add 48 µL of medium to all wells in row A. Pipet 2 µL of antimicrobial master stock into the top well (row A). Beware, the antimicrobial concentration will be diluted 2x after adding the bacterial culture. Total volume in each well will be 100 µL. In A11, pipet 2 µL of DMSO. Make a serial dilution from row A to row H, pipetting 50 µL from the previous row into the new one. Mix well by pipetting up and down. Discard the last 50 µL so that there is 50 µl in each well In a clean, new plastic pipetting cup, dilute the overnight bacterial culture 100 times. Add 100 µL of bacterial overnight culture to 9900 µL of medium. Mix the suspension well. Once the serial dilutions are complete for all antimicrobial compounds, add 50 µL of diluted overnight bacterial culture to each well (except column 12). Mix by pipetting or put the plate on the shaker. Per 2 plates, close with parafilm around the edges and place in the incubator overnight. After overnight culturing, measure bacterial growth on the SpectraMax. The lowest concentration where no growth is observed is the MIC. To determine the MIB pipette 5 µL from each well of the 96 well plate where now growth was observed on to an LB agar plate, without antimicrobial. Put the plates in the incubator to grow overnight. The minimal concentration where no growth can be seen on the agar plate is the MBC.

S. suis = assay: as above; format: cell-based, Streptococcus suis; settings: unit assumed
Description: as §1, with “each plate. The MICs were not determined in duplo/triplicate in the same experiment, however, the MICs of several HKIs were measured in different experiments and no major differences (max. 1x dilution) were found in the MICs between the experiments.” for “each plate.”
(§3) Bacterial strains used in this study for antibacterial susceptibility testing (Table S2) were propagated using standard microbiological procedures. Minimal inhibitory concentrations (MICs) were determined following a standard double-dilution method (42), 73. MICs were recorded as the lowest concentration of the compound where no visible growth was observed. After plating the dilutions around the MIC or growing them in fresh MH media, minimal bactericidal concentration (MBC) was recorded as the lowest concentration of the compound at which no colonies were formed or no growth was observed, respectively. For M. marinum, MICs were determined in Middlebrook 7H9 broth (Difco) and MICs were determined after 3 days incubation at 30 °C.
as §2

P. multocida = assay: as above; format: cell-based, Pasteurella multocida; settings: unit assumed
Description: as §1, with “each plate. The MICs were not determined in duplo/triplicate in the same experiment, however, the MICs of several HKIs were measured in different experiments and no major differences (max. 1x dilution) were found in the MICs between the experiments.” for “each plate.”
as §3, §2

M. marinum = assay: Minimal inhibitory concentration (MIC), Middlebrook 7H9 broth, 3 days at 30 °C; format: cell-based, Mycobacterium marinum; settings: unit assumed
Description: as §1, with “each plate. The MICs were not determined in duplo/triplicate in the same experiment, however, the MICs of several HKIs were measured in different experiments and no major differences (max. 1x dilution) were found in the MICs between the experiments.” for “each plate.”
as §3, §2

E. faecium Van A = assay: Minimal inhibitory concentration (MIC), double-dilution in broth, OD600; format: cell-based, Enterococcus faecium; settings: unit assumed
Description: as §1, with “each plate. The MICs were not determined in duplo/triplicate in the same experiment, however, the MICs of several HKIs were measured in different experiments and no major differences (max. 1x dilution) were found in the MICs between the experiments.” for “each plate.”
as §3, §2

NRK-52E = assay: Cell toxicity, Alamar blue assay, 24 hours exposure; format: cell-based; settings: Rattus norvegicus
Description: Toxicity was primarily determined by measuring cytotoxicity with the Alamar blue assay. In short, cells (HEK293, NRK-52E and Caco-2) were plated in 96-well plates and cultured overnight. HKI compounds were diluted to concentrations ranging from 0.39 to 500 µg/mL in serum-free medium and added to the cells.
After exposure, cells were incubated for 24 hours. Experiments were mostly performed by single measurement. […] After 24 hours HKIs were removed from the cells and Alamar blue was added, incubated for 45 minutes and fluorescence was measured on a spectrophotometer. Alamar blue measures the conversion of blue, low fluorescent resazurin into high fluorescent pink resorufin. This conversion can only be made in viable mitochondria in viable cells and therefore this dye provides a measure for cytotoxicity.

E. coli JW5503 = format: cell-based, Escherichia coli; settings: unit assumed
Description: as §1, with “each plate. The MICs were not determined in duplo/triplicate in the same experiment, however, the MICs of several HKIs were measured in different experiments and no major differences (max. 1x dilution) were found in the MICs between the experiments.” for “each plate.”
as §3, §2

[1] = read-out: IC50 NRK-52E (50 mg/mL stock)

COc1ccccc1-c1c(-c2ccc(OCC(=O)NN)cc2O)n[nH]c1C(F)(F)F [Sep-26, 2-[3-hydroxy-4-[4-(2-methoxyphenyl)-5-(trifluoromethyl)-1∼{H}-pyrazol-3-yl]phenoxy]acetohy drazide]
MIC S. aureus Newman (S. aureus Newman): > 50 µg/mL
MIC S. suis (S. suis): > 50 µg/mL
MIC P. multocida (P. multocida): > 50 µg/mL
MIC M. marinum (M. marinum): > 50 µg/mL
MIC E. faecium Van A (E. faecium Van A): 25 µg/mL (≈ 59.2 µM)
IC50 (NRK-52E; read-out: IC50 NRK-52E (50 mg/mL stock), 50 mg/mL stock): 194 µg/mL (≈ 461 µM)

Oc1ccc(-c2[nH]nc(C(F)(F)F)c2-c2ccccc2)c(O)c1 [May-10, 4-[4-phenyl-5-(trifluoromethyl)-1∼{H}-pyrazol-3-yl]resorcinol]
MIC S. aureus Newman (S. aureus Newman): 6.25 µg/mL (≈ 19.5 µM)
MIC S. suis (S. suis): 12.5 µg/mL (≈ 39 µM)
MIC P. multocida (P. multocida): 25 µg/mL (≈ 78.1 µM)
MIC M. marinum (M. marinum): 50 µg/mL (≈ 156 µM)
MIC E. faecium Van A (E. faecium Van A): 12.5 µg/mL (≈ 39 µM)
IC50 (NRK-52E; [1]): ~3.61 µg/mL (≈ 11.3 µM)

COc1ccccc1-c1c(C(F)(F)F)n[nH]c1-c1ccc(OCc2ccc(C)cc2)cc1O [Sep-16, 2-[4-(2-methoxyphenyl)-5-(trifluoromethyl)-1∼{H}-pyrazol-3-yl]-5-(4-methylbenzyl)oxy-phenol]
MIC S. aureus Newman (S. aureus Newman): 6.25 µg/mL (≈ 13.8 µM)
MIC S. suis (S. suis): 25 µg/mL (≈ 55 µM)
MIC P. multocida (P. multocida): > 50 µg/mL
MIC M. marinum (M. marinum): > 50 µg/mL
MIC E. coli JW5503 (E. coli JW5503): 50 µg/mL (≈ 110 µM)
MIC E. faecium Van A (E. faecium Van A): 12.5 µg/mL (≈ 27.5 µM)
IC50 (NRK-52E; [1]): ~8.72 µg/mL (≈ 19.2 µM)

COc1ccccc1-c1c(C(F)(F)F)n[nH]c1-c1ccc(OCc2ccccc2)cc1O [Sep-17, 5-benzoxy-2-[4-(2-methoxyphenyl)-5-(trifluoromethyl)-1∼{H}-pyrazol-3-yl]phenol]
MIC S. aureus Newman (S. aureus Newman): 6.25 µg/mL (≈ 14.2 µM)
MIC S. suis (S. suis): 25 µg/mL (≈ 56.8 µM)
MIC P. multocida (P. multocida): > 50 µg/mL
MIC M. marinum (M. marinum): > 50 µg/mL
MIC E. coli JW5503 (E. coli JW5503): 12.5 µg/mL (≈ 28.4 µM)
MIC E. faecium Van A (E. faecium Van A): 12.5 µg/mL (≈ 28.4 µM)
IC50 (NRK-52E; [1]): ~8.97 µg/mL (≈ 20.4 µM)

COc1ccc(-c2c(-c3ccc(OC)c(C)c3O)n[nH]c2C(F)(F)F)cc1 [Sep-1, 3-methoxy-6-[4-(4-methoxyphenyl)-5-(trifluoromethyl)-1∼{H}-pyrazol-3-yl]-2-methyl-phenol]
MIC S. aureus Newman (S. aureus Newman): 25 µg/mL (≈ 66.1 µM)
MIC S. suis (S. suis): 50 µg/mL (≈ 132 µM)
MIC P. multocida (P. multocida): > 50 µg/mL
MIC M. marinum (M. marinum): > 50 µg/mL
MIC E. coli JW5503 (E. coli JW5503): 6.25 µg/mL (≈ 16.5 µM)
MIC E. faecium Van A (E. faecium Van A): 50 µg/mL (≈ 132 µM)
IC50 (NRK-52E; [1]): 23.2 µg/mL (≈ 61.3 µM)

COc1ccccc1-c1c(-c2ccc(O)cc2O)n[nH]c1C(F)(F)F [May-13, 4-[4-(2-methoxyphenyl)-5-(trifluoromethyl)-1∼{H}-pyrazol-3-yl]resorcinol]
MIC S. aureus Newman (S. aureus Newman): 25 µg/mL (≈ 71.4 µM)
MIC S. suis (S. suis): 25 µg/mL (≈ 71.4 µM)
MIC P. multocida (P. multocida): 50 µg/mL (≈ 143 µM)
MIC M. marinum (M. marinum): > 50 µg/mL
MIC E. faecium Van A (E. faecium Van A): 50 µg/mL (≈ 143 µM)
IC50 (NRK-52E; [1]): 8.06 µg/mL (≈ 23 µM)

COc1ccccc1-c1c(-c2ccc(OCC=C(C)C)cc2O)n[nH]c1C(F)(F)F [Sep-30, 2-[4-(2-methoxyphenyl)-5-(trifluoromethyl)-1∼{H}-pyrazol-3-yl]-5-(3-methylbut-2-enoxy)phenol]
MIC S. aureus Newman (S. aureus Newman): 6.25 µg/mL (≈ 14.9 µM)
MIC S. suis (S. suis): 25 µg/mL (≈ 59.7 µM)
MIC P. multocida (P. multocida): > 50 µg/mL
MIC M. marinum (M. marinum): > 50 µg/mL
MIC E. coli JW5503 (E. coli JW5503): 6.25 µg/mL (≈ 14.9 µM)
MIC E. faecium Van A (E. faecium Van A): 12.5 µg/mL (≈ 29.9 µM)
IC50 (NRK-52E; [1]): ~17.2 µg/mL (≈ 41.2 µM)

CCCCCOc1ccc(-c2n[nH]c(C(F)(F)F)c2-c2ccccc2Cl)c(O)c1 [Sep-5, 2-[4-(2-chlorophenyl)-5-(trifluoromethyl)-1∼{H}-pyrazol-3-yl]-5-pentoxyphenol]
MIC S. aureus Newman (S. aureus Newman): 3.13 µg/mL (≈ 7.37 µM)
MIC S. suis (S. suis): 12.5 µg/mL (≈ 29.4 µM)
MIC P. multocida (P. multocida): > 50 µg/mL
MIC M. marinum (M. marinum): 50 µg/mL (≈ 118 µM)
MIC E. coli JW5503 (E. coli JW5503): > 50 µg/mL
MIC E. faecium Van A (E. faecium Van A): 12.5 µg/mL (≈ 29.4 µM)
IC50 (NRK-52E; [1]): ~7.46 µg/mL (≈ 17.6 µM)
